In ChEMBL document CHEMBL5728921, “Pyridylpyridone compounds” (2022) one finds IC50 data, which are given here for one molecule.

In general, IC50 refers to the concentration that gives 50% inhibition.

This experiment has as its target Phosphatidylinositol 3-kinase catalytic subunit type 3 (Homo sapiens, UniProt Q8NEB9). Description: Biochemical Assay: Dilution series of compounds of the invention were prepared in DMSO at 100 times the final assay concentration (n1=n0/3 in 10 points). The compounds were further diluted to 4 times the assay concentration in assay buffer (Life technologies buffer Q, PV5125, diluted 5 times supplemented with 2 mM DTT and 2 mM MnCl2). 2.5 μl of the diluted compounds were added to a 384 well assay plate followed by 2.5 μl of 16.5 nM Vps34 enzyme (Life technologies, PV5126). Enzyme and compounds were pre-incubated at rt for 15 min. Then 5 μl of substrate mix containing 20 μM ATP (Life technologies, PV3227) and 200 μM PI:PS substrate (Life technologies, PV5122) in assay buffer was added to the wells containing compound and enzyme. Mixing was performed by pipetting several times. The reaction was incubated at room temperature for 1 h. Then 5 μl stop-detection mix, prepared as described in the Adapta kinase assay kit instructions (Life technologies, PV5099) containing Adapta Eu-anti-ADP antibody (2.3 nM), Alexa Fluor 647 ADP tracer (9 nM) and EDTA (30 mM) in TR-FRET buffer, was added to quench the reaction. Mixing was performed by pipetting several times. The assay plate was then incubated at room temperature for 30 min and read with Artemis micro plate reader. Percent inhibition of the compounds as compared to DMSO treated control samples was calculated.

Chain of Phosphatidylinositol 3-kinase catalytic subunit type 3 (Q8NEB9 whole entry): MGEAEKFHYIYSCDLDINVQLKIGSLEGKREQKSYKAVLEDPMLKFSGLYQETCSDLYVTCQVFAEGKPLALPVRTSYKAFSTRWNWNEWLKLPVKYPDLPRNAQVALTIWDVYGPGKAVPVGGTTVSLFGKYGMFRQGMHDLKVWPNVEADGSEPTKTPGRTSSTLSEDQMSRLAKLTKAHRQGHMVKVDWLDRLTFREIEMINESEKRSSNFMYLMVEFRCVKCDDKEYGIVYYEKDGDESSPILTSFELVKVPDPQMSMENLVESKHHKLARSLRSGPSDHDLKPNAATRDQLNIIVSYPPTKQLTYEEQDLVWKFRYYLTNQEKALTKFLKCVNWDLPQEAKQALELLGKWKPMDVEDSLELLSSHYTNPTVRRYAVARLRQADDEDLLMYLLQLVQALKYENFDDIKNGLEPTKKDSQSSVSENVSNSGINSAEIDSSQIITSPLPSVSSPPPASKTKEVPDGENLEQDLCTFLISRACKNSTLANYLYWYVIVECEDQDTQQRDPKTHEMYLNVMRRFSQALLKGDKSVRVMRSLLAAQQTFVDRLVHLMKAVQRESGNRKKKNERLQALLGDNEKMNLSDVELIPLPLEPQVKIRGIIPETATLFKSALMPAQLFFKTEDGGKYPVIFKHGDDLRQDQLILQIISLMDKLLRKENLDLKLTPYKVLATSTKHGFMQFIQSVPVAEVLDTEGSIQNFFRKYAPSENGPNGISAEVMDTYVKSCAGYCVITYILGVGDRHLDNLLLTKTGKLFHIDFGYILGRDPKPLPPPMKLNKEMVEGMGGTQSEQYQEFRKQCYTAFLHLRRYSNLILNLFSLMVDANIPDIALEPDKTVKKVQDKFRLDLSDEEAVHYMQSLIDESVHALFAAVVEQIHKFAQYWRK

Regarding `CC(=O)Nc1cc(-c2cc(-c3ccccc3Cl)[nH]c(=O)c2)ccn1`, the IC50 was less than 5 nM.
